In brackets after ≈: the same amount, converted by molar mass.
What was measured:
Format in all cases: functional
Enterococcus faecalis [1] = assay: microbe, parasite or virus in culture; settings: ATCC 29212
Description: Antibacterial activity against vancomycin-sensitive Enterococcus faecalis ATCC 29212 by CLSI agar microdilution method

Staphylococcus aureus [2] = assay: microbe, parasite or virus in culture; settings: ATCC 25923
Description: Antibacterial activity against methicillin-sensitive Staphylococcus aureus ATCC 25923 by CLSI agar microdilution method

Staphylococcus aureus [3] = assay: Antibacterial activity against Staphylococcus aureus 26003 by CLSI agar microdilution method
Staphylococcus aureus [4] = assay: microbe, parasite or virus in culture; settings: ATCC 33591
Description: Antibacterial activity against methicillin-resistant Staphylococcus aureus ATCC 33591 by CLSI agar microdilution method

Streptococcus pneumoniae [5] = assay: Antibacterial activity against Streptococcus pneumoniae 31002 by CLSI agar microdilution method
Staphylococcus = assay: Antibacterial activity against Staphylococcus albus 26101 by CLSI agar microdilution method
Enterococcus faecalis [6] = assay: microbe, parasite or virus in culture; settings: ATCC 51299
Enterococcus faecium [7] = assay: Antibacterial activity against Enterococcus faecium 32220 by CLSI agar microdilution method
Streptococcus pneumoniae [8] = assay: Antibacterial activity against penicillin-intermediate Streptococcus pneumoniae ATCC 49619 by CLSI broth microdilution method
Streptococcus pneumoniae [9] = assay: Antibacterial activity against penicillin-resistant Streptococcus pneumoniae MSPN 0003 by CLSI broth microdilution method
[10] = tested on: Staphylococcus epidermidis; assay: Antibacterial activity against Staphylococcus epidermidis 26069 by CLSI agar microdilution method
Enterococcus faecium [11] = assay: Antibacterial activity against vancomycin-resistant Enterococcus faecium MEFA 0039 by CLSI agar microdilution method
Streptococcus = assay: Antibacterial activity against Streptococcus gamma 32206 by CLSI agar microdilution method
Enterococcus faecium [12] = assay: Antibacterial activity against vancomycin-sensitive Enterococcus faecium ATCC 35667 by CLSI agar microdilution method
Enterococcus faecium [13] = assay: Antibacterial activity against vancomycin-resistant Enterococcus faecium MEFA 0039 by CLSI agar microdilution method relative to vancomycin
Enterococcus faecalis [14] = assay: Antibacterial activity against vancomycin-resistant Enterococcus faecalis ATCC 51299 by CLSI agar microdilution method relative to vancomycin
Enterococcus faecium [15] = assay: Antibacterial activity against vancomycin-sensitive Enterococcus faecium ATCC 35667 by CLSI agar microdilution method relative to LYV07ww01

CN[C@H](CC(C)C)C(=O)N[C@H]1C(=O)N[C@@H](CC(N)=O)C(=O)N[C@H]2C(=O)N[C@H]3C(=O)N[C@H](C(=O)N[C@@H](C(=O)O)c4cc(O)cc(O)c4-c4cc3ccc4O)[C@H](O[C@H]3C[C@](C)(N)[C@H](O)[C@H](C)O3)c3ccc(c(Cl)c3)Oc3cc2cc(c3O[C@@H]2O[C@H](CO)[C@@H](O)[C@H](O)[C@H]2O[C@H]2C[C@](C)(N)[C@H](O)[C@H](C)O2)Oc2ccc(cc2Cl)[C@H]1O
MIC (Enterococcus faecalis [1]): 0.25 µg/mL (≈ 0.157 µM) | MIC (Staphylococcus aureus [2]): 0.25 µg/mL (≈ 0.157 µM) | MIC (Staphylococcus aureus [3]): 0.39 µg/mL (≈ 0.245 µM) | MIC (Staphylococcus aureus [4]): 0.125 µg/mL (≈ 0.0785 µM) | MIC (Streptococcus pneumoniae [5]): 0.098 µg/mL (≈ 0.0615 µM) | MIC (Staphylococcus): 0.78 µg/mL (≈ 0.49 µM) | MIC (Enterococcus faecalis [6]): 0.5 µg/mL (≈ 0.314 µM) | MIC (Enterococcus faecium [7]): 3.13 µg/mL (≈ 1.97 µM) | MIC (Streptococcus pneumoniae [8]): 0.063 µg/mL (≈ 0.0396 µM) | MIC (Streptococcus pneumoniae [9]): 0.125 µg/mL (≈ 0.0785 µM) | MIC [10]: > 25 µg/mL | MIC (Enterococcus faecium [11]): 8 µg/mL (≈ 5.02 µM) | MIC (Streptococcus): 0.78 µg/mL (≈ 0.49 µM) | MIC (Enterococcus faecium [12]): 0.125 µg/mL (≈ 0.0785 µM)

CN[C@H](CC(C)C)C(=O)N[C@H]1C(=O)N[C@@H](CC(N)=O)C(=O)N[C@H]2C(=O)N[C@H]3C(=O)N[C@H](C(=O)N[C@@H](C(=O)O)c4cc(O)cc(O)c4-c4cc3ccc4O)[C@H](O[C@H]3C[C@](C)(N)[C@H](O)[C@H](C)O3)c3ccc(c(Cl)c3)Oc3cc2cc(c3O[C@@H]2O[C@H](CO)[C@@H](O)[C@H](O)[C@H]2O[C@H]2C[C@](C)(NCc3ccc(OC)cc3)[C@H](O)[C@H](C)O2)Oc2ccc(cc2Cl)[C@H]1O
MIC (Enterococcus faecalis [1]): 0.5 µg/mL (≈ 0.292 µM) | MIC (Staphylococcus aureus [2]): 1 µg/mL (≈ 0.584 µM) | MIC (Staphylococcus aureus [3]): 0.78 µg/mL (≈ 0.455 µM) | MIC (Staphylococcus aureus [4]): 0.5 µg/mL (≈ 0.292 µM) | MIC (Streptococcus pneumoniae [5]): 0.78 µg/mL (≈ 0.455 µM) | fold change (FC) (Enterococcus faecium [13]): 4 | MIC (Staphylococcus): 1.56 µg/mL (≈ 0.911 µM) | MIC (Enterococcus faecalis [6]): 0.5 µg/mL (≈ 0.292 µM) | MIC (Enterococcus faecium [7]): 1.56 µg/mL (≈ 0.911 µM) | MIC (Streptococcus pneumoniae [8]): 0.063 µg/mL (≈ 0.0368 µM) | MIC (Streptococcus pneumoniae [9]): 0.125 µg/mL (≈ 0.073 µM) | MIC [10]: 3.13 µg/mL (≈ 1.83 µM) | fold change (FC) (Enterococcus faecalis [14]): 4 | MIC (Enterococcus faecium [11]): 4 µg/mL (≈ 2.34 µM) | MIC (Streptococcus): 1.56 µg/mL (≈ 0.911 µM) | MIC (Enterococcus faecium [12]): 0.125 µg/mL (≈ 0.073 µM)

CCCCN[C@@]1(C)C[C@H](O[C@H]2[C@H](Oc3c4cc5cc3Oc3ccc(cc3Cl)[C@@H](O[C@H]3C[C@](C)(N)[C@H](O)[C@H](C)O3)[C@@H]3NC(=O)[C@H](NC(=O)[C@@H]5NC(=O)[C@H](CC(N)=O)NC(=O)[C@H](NC(=O)[C@@H](CC(C)C)NC)[C@H](O)c5ccc(c(Cl)c5)O4)c4ccc(O)c(c4)-c4c(O)cc(O)cc4[C@H](C(=O)O)NC3=O)O[C@H](CO)[C@@H](O)[C@@H]2O)O[C@@H](C)[C@H]1O
MIC (Enterococcus faecalis [1]): 0.5 µg/mL (≈ 0.303 µM) | MIC (Staphylococcus aureus [2]): 0.5 µg/mL (≈ 0.303 µM) | MIC (Staphylococcus aureus [3]): 0.78 µg/mL (≈ 0.473 µM) | MIC (Staphylococcus aureus [4]): 0.5 µg/mL (≈ 0.303 µM) | MIC (Streptococcus pneumoniae [5]): 0.39 µg/mL (≈ 0.237 µM) | MIC (Staphylococcus): 1.56 µg/mL (≈ 0.946 µM) | MIC (Enterococcus faecalis [6]): 1 µg/mL (≈ 0.607 µM) | MIC (Enterococcus faecium [7]): > 25 µg/mL | MIC (Streptococcus pneumoniae [8]): 0.063 µg/mL (≈ 0.0382 µM) | MIC (Streptococcus pneumoniae [9]): 0.125 µg/mL (≈ 0.0758 µM) | MIC [10]: > 25 µg/mL | MIC (Enterococcus faecium [11]): 32 µg/mL (≈ 19.4 µM) | MIC (Streptococcus): 1.56 µg/mL (≈ 0.946 µM) | MIC (Enterococcus faecium [12]): 0.25 µg/mL (≈ 0.152 µM)

CN[C@H](CC(C)C)C(=O)N[C@H]1C(=O)N[C@@H](CC(N)=O)C(=O)N[C@H]2C(=O)N[C@H]3C(=O)N[C@H](C(=O)N[C@@H](C(=O)O)c4cc(O)cc(O)c4-c4cc3ccc4O)[C@H](O[C@H]3C[C@](C)(N)[C@H](O)[C@H](C)O3)c3ccc(c(Cl)c3)Oc3cc2cc(c3O[C@@H]2O[C@H](CO)[C@@H](O)[C@H](O)[C@H]2O[C@H]2C[C@](C)(NCc3ccc(Br)cc3)[C@H](O)[C@H](C)O2)Oc2ccc(cc2Cl)[C@H]1O
MIC (Enterococcus faecalis [1]): 0.5 µg/mL (≈ 0.284 µM) | fold change (FC) (Enterococcus faecium [15]): 4 | MIC (Staphylococcus aureus [2]): 1 µg/mL (≈ 0.568 µM) | MIC (Staphylococcus aureus [3]): 1.56 µg/mL (≈ 0.886 µM) | MIC (Staphylococcus aureus [4]): 0.5 µg/mL (≈ 0.284 µM) | MIC (Streptococcus pneumoniae [5]): 1.56 µg/mL (≈ 0.886 µM) | MIC (Staphylococcus): 1.56 µg/mL (≈ 0.886 µM) | MIC (Enterococcus faecalis [6]): 0.5 µg/mL (≈ 0.284 µM) | MIC (Enterococcus faecium [7]): 1.56 µg/mL (≈ 0.886 µM) | MIC (Streptococcus pneumoniae [8]): ≤ 0.031 µg/mL | MIC (Streptococcus pneumoniae [9]): ≤ 0.031 µg/mL | MIC [10]: 6.25 µg/mL (≈ 3.55 µM) | fold change (FC) (Enterococcus faecalis [14]): 4 | MIC (Enterococcus faecium [11]): 2 µg/mL (≈ 1.14 µM) | MIC (Streptococcus): 6.25 µg/mL (≈ 3.55 µM) | MIC (Enterococcus faecium [12]): ≤ 0.031 µg/mL

— ChEMBL document CHEMBL1909570, “Synthesis and antibacterial activity of N4-mono alkyl derivatives of novel glycopeptide LYV07ww01” (2011)
